{"source": "paper PMC3257218", "about": "(Journal of Medicinal Chemistry, 2011)", "key": {"human OCT2": {"target": "T1, human OCT2 (Homo sapiens, UniProt O15244, S270A)", "T1 sequence (O15244 1-555 S270A)": "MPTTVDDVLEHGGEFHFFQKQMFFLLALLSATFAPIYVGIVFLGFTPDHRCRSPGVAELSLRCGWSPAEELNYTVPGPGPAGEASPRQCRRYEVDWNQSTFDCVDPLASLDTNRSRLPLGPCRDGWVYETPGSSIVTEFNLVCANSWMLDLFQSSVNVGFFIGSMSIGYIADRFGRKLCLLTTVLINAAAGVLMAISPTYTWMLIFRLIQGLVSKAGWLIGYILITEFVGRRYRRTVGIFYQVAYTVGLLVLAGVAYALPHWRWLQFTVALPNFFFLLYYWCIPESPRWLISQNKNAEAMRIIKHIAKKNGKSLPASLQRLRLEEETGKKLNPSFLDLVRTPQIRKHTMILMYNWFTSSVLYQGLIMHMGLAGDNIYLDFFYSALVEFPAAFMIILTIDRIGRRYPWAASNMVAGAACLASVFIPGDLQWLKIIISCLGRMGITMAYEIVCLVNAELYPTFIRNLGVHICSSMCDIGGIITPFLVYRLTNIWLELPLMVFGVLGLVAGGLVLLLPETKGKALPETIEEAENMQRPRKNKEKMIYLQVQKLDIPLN", "assay": "ASP+ uptake inhibition in HEK293 cells stably expressing OCT2", "settings": "for inhibition of OCT2 mediated transport: ASP+ 5 µM; for inhibition of renal OCT2 and MATE1 compared to hepatic OCT1: concentration-dependent inhibition, Figure 4C"}, "OCT2-A270S": {"target": "T2, OCT2-A270S (Homo sapiens, UniProt O15244)", "T2 sequence (O15244 1-555)": "T1 sequence (O15244 1-555 S270A) with A270S", "assay": "ASP+ uptake inhibition in HEK293 cells stably expressing OCT2-A270S", "assay_type": "cell-based", "settings": "for affinity towards OCT2-A270S compared to reference protein: concentration-dependent inhibition, Figure 4C"}, "MATE1": {"target": "T3, MATE1 (Homo sapiens, UniProt Q96FL8)", "T3 sequence (Q96FL8 1-570)": "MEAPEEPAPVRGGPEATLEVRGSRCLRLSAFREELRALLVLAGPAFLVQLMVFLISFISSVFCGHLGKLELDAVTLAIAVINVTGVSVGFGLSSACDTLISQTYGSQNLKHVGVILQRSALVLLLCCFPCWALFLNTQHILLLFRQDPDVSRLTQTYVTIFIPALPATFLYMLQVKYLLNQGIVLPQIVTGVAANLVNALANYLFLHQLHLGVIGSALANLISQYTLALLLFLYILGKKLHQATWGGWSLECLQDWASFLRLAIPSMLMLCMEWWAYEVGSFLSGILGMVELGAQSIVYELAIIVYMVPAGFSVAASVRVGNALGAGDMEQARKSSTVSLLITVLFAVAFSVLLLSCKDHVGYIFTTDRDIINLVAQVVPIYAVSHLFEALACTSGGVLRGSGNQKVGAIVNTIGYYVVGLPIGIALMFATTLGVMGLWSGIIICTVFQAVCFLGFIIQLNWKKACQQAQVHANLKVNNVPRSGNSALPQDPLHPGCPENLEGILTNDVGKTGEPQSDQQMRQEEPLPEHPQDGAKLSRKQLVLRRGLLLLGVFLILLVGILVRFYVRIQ", "assay": "ASP+ uptake inhibition in HEK293 cells stably expressing MATE1", "assay_type": "cell-based", "settings": "for inhibition potency for MATE1 versus other transporters of the panel: concentration-dependent inhibition, Figure 4C"}, "[1]": {"settings": "collected from the literature; cited from earlier work"}, "MATE2-K": {"target": "MATE2-K (Homo sapiens, UniProt Q86VL8)", "sequence (Q86VL8 1-566 isoform Q86VL8-3)": "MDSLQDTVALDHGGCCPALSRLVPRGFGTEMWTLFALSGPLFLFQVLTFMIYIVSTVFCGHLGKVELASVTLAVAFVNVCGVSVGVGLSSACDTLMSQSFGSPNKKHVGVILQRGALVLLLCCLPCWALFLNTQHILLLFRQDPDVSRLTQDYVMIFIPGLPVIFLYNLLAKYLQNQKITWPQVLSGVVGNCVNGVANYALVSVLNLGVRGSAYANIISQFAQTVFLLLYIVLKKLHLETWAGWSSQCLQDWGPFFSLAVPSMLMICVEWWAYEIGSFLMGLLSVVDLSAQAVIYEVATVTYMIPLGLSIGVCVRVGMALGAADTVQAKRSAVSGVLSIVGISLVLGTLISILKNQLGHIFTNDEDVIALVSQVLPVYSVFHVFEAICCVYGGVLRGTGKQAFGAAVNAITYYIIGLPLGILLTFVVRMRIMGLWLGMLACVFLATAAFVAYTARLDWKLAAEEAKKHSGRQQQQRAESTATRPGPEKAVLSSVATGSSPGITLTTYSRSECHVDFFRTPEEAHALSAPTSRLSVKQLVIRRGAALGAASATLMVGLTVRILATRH", "assay": "ASP+ uptake inhibition in HEK293 cells stably expressing MATE2-K", "assay_type": "cell-based"}, "human OCT1": {"target": "T4, human OCT1 (Homo sapiens, UniProt O15245)", "T4 sequence (O15245 1-554)": "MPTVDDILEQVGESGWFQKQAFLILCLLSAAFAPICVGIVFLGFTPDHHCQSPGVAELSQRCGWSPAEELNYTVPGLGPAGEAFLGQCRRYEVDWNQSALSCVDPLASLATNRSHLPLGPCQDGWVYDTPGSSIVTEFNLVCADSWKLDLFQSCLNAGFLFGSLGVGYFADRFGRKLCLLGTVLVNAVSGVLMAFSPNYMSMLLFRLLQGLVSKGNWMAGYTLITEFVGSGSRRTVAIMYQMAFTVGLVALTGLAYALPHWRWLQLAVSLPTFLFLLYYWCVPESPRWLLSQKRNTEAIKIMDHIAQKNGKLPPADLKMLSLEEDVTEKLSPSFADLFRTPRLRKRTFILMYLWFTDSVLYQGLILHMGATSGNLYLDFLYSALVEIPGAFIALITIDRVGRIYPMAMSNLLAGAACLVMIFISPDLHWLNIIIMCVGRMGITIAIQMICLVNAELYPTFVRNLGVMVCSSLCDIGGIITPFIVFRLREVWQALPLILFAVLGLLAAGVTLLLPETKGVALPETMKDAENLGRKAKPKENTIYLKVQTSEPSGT", "settings": "screen at 20 µM"}}, "note": "Changes are numbered by the printed parent chain."}
{"smiles": "CN(C)c1ccc(C=Cc2cc[n+](C)cc2)cc1", "note": "[ASP^+, 4-(4-(dimethylamino)styryl)-N-methylpyridinium]", "values": [{"measurement": "Km", "setting": "human OCT2; read-out: Km of ASP+ transport, OCT2 specific uptake, HEK293 cells", "value": "36.4 ± 6.8", "unit": "µM"}]}
{"smiles": "CN/C(=N\\CCSCc1nc[nH]c1C)NC#N", "note": "[Cimetidine]", "values": [{"measurement": "inhibition of transporter activity", "setting": "OCT2-A270S; inhibitor 500 µM", "value": "complete inhibition of transporter activity"}, {"measurement": "inhibition potency for MATE1 versus other transporters of the panel", "setting": "MATE1", "value": "considerably higher inhibition potency for MATE1 than for the other transporters in the panel"}, {"measurement": "inhibition of transporter activity", "setting": "MATE1; inhibitor 500 µM", "value": "complete inhibition of transporter activity"}, {"measurement": "inhibition of OCT2 mediated transport", "setting": "human OCT2; inhibitor 20 µM", "value": "partial"}, {"measurement": "inhibition of OCT2 mediated transport", "setting": "human OCT2; inhibitor 500 µM", "value": "complete inhibition of transporter activity"}]}
{"smiles": "CC(C)N(CCC(C(N)=O)(c1ccccc1)c1ccccn1)C(C)C", "note": "(stereo not drawn) [Disopyramide]", "values": [{"measurement": "PB, plasma protein binding", "setting": "[1]", "value": 50, "unit": "%"}]}
{"smiles": "CN(C)CCCN1c2ccccc2CCc2ccccc21", "note": "[Imipramine]", "values": [{"measurement": "PB, plasma protein binding", "setting": "[1]", "value": 90, "unit": "%"}, {"measurement": "affinity towards OCT2-A270S compared to reference protein", "setting": "OCT2-A270S", "value": "lower affinity towards the genetic variant OCT2-A270S than to the reference protein"}, {"measurement": "inhibition of renal OCT2 and MATE1 compared to hepatic OCT1", "setting": "human OCT2", "value": "preferential inhibition of the renal transporters OCT2 and MATE1 compared to the hepatic OCT1"}]}
{"smiles": "Cc1nccn1CC1CCc2c(c3ccccc3n2C)C1=O", "note": "(stereo not drawn) [Ondansetron]", "values": [{"measurement": "affinity towards OCT2-A270S compared to reference protein", "setting": "OCT2-A270S", "value": "lower affinity towards the genetic variant OCT2-A270S than to the reference protein"}, {"measurement": "inhibition potency for MATE1 versus other transporters of the panel", "setting": "MATE1", "value": "considerably higher inhibition potency for MATE1 than for the other transporters in the panel"}, {"measurement": "inhibition of renal OCT2 and MATE1 compared to hepatic OCT1", "setting": "human OCT2", "value": "preferential inhibition of the renal transporters OCT2 and MATE1 compared to the hepatic OCT1"}, {"measurement": "inhibition of transporter activity", "setting": "MATE2-K; inhibitor 250 µM", "value": "complete inhibition of transporter activity"}]}
{"smiles": "COc1cc(C(=O)NS(=O)(=O)c2ccccc2C)ccc1Cc1cn(C)c2ccc(NC(=O)OC3CCCC3)cc12", "note": "[zafirlukast]", "values": [{"measurement": "inhibition in specificity screen (MATE1)", "setting": "MATE1; screen at 20 µM", "value": "showed affinity for all four organic cation transporters"}, {"measurement": "inhibition in specificity screen (OCT2)", "setting": "human OCT2; screen at 20 µM", "value": "showed affinity for all four organic cation transporters"}, {"measurement": "inhibition in specificity screen (MATE2-K)", "setting": "MATE2-K; screen at 20 µM", "value": "showed affinity for all four organic cation transporters"}, {"measurement": "inhibition in specificity screen (OCT1)", "setting": "human OCT1", "value": "showed affinity for all four organic cation transporters"}]}
